Test results as given in PMC10337138 (Acta Neuropathologica Communications, 2023).

Key:
Settings in all cases: 1 mM ATP; inhibitor
[1] = target: NEK2 (Homo sapiens, UniProt P51955)
Experimental: (§1) Kinase selectivity panel Kinome profiling was conducted by AssayQuant Technologies (Marlboro, MA) using Sox chromophore technology and Sox-based peptide substrates developed for human kinases in a 384-well format. Compounds were tested at 1 µM in the presence of 1 mM ATP.

[2] = target: CSK (Homo sapiens, UniProt P41240)
Sequence of CSK (P41240 whole entry): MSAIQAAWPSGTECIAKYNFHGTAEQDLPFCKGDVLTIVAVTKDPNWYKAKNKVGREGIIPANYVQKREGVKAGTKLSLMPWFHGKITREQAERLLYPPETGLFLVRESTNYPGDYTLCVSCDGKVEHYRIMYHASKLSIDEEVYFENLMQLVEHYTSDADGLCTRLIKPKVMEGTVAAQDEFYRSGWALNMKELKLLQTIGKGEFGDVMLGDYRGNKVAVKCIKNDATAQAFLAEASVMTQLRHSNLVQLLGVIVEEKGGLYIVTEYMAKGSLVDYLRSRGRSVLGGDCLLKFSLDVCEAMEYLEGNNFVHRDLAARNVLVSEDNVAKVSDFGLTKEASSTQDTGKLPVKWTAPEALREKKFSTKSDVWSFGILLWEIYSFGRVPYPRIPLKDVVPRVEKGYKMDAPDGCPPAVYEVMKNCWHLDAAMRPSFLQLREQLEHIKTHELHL
Experimental: as §1

[3] = target: IGF1R (Homo sapiens, UniProt P08069)
Experimental: as §1

[4] = target: PRKG2 (Homo sapiens, UniProt Q13237)
Experimental: as §1

[5] = target: IRAK1 (Homo sapiens, UniProt P51617)
Experimental: as §1

[6] = target: MASTL (Homo sapiens, UniProt Q96GX5)
Experimental: as §1

[7] = target: CDK6/D3 (Homo sapiens, UniProt Q00534)
Sequence of CDK6/D3 (Q00534 whole entry): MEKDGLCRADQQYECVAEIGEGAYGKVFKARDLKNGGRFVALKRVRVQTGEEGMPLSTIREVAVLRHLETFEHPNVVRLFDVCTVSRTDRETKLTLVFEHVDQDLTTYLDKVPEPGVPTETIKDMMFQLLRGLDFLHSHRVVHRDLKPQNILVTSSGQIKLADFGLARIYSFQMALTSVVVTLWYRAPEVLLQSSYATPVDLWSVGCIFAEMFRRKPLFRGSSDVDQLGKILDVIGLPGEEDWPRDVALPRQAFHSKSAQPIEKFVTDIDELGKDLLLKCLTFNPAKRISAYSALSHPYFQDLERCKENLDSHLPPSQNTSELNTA
Sequence of CDK6/D3 (P30281 whole entry partner): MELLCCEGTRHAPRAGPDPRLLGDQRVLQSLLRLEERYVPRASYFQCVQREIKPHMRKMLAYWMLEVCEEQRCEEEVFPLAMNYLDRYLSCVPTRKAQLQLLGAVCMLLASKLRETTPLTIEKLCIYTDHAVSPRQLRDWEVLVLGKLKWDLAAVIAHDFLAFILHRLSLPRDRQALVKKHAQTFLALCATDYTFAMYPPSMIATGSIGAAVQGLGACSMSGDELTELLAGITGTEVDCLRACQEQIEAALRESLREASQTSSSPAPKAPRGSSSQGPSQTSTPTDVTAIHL
Experimental: as §1

[8] = target: T1, MNK1 (Homo sapiens, UniProt Q9BUB5)
T1 construct: gene MKNK1
Experimental: as §1

[9] = target: CSNK1E/CK1E (Homo sapiens, UniProt P49674)
Sequence of CSNK1E/CK1E (P49674 whole entry): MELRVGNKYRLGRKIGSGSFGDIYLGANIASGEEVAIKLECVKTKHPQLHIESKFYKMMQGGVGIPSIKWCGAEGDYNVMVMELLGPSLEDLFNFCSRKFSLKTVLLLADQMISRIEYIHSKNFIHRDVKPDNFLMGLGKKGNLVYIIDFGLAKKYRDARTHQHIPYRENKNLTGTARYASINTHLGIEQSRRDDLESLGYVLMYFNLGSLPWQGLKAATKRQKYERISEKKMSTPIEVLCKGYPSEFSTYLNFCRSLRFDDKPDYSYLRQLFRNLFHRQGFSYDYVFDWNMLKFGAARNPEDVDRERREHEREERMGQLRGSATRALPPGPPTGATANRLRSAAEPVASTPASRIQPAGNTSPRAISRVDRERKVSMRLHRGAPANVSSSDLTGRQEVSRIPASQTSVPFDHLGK
Experimental: as §1

[10] = target: GRK7 (Homo sapiens, UniProt Q8WTQ7)
Experimental: as §1

[11] = target: GRK1 (Homo sapiens, UniProt Q15835)
Experimental: as §1

[12] = target: EPHB3 (Homo sapiens, UniProt P54753)
Experimental: as §1

[13] = target: SIK1 (Homo sapiens, UniProt P57059)
Experimental: as §1

[14] = target: MAP4K1/HPK1 (Homo sapiens, UniProt Q92918)
Experimental: as §1

[15] = target: EPHB2 (Homo sapiens, UniProt P29323)
Experimental: as §1

[16] = target: PRKCD/CPKCD (Homo sapiens, UniProt Q05655)
Experimental: as §1

[17] = target: FLT3 (Homo sapiens, UniProt P36888)
Sequence of FLT3 (P36888 whole entry): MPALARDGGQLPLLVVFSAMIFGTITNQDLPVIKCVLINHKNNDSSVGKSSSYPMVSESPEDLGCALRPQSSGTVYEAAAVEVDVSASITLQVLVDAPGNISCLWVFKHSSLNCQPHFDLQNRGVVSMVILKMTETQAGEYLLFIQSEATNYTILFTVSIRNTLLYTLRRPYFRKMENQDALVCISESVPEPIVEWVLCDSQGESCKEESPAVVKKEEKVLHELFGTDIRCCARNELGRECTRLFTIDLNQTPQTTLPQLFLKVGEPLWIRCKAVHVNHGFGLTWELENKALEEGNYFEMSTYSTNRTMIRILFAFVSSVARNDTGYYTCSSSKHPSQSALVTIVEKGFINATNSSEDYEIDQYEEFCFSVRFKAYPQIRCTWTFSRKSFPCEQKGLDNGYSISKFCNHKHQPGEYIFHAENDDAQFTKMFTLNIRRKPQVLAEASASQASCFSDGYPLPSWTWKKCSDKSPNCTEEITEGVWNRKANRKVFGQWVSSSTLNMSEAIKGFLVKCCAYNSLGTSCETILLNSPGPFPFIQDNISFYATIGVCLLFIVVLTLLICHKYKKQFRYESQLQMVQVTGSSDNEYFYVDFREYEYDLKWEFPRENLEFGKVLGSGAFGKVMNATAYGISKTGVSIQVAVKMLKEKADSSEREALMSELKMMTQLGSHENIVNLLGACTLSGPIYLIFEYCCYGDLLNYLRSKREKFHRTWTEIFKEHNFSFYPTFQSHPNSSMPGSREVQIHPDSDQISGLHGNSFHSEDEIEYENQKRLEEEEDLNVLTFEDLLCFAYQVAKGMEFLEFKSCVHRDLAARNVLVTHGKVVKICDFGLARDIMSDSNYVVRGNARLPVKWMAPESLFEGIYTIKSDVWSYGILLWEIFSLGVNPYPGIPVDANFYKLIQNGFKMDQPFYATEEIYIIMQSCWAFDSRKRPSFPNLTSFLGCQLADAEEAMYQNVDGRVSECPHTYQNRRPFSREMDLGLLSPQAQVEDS
Experimental: as §1

[18] = target: PIM1 (Homo sapiens, UniProt P11309)
Experimental: as §1

[19] = target: STK26/MST4 (Homo sapiens, UniProt Q9P289)
Sequence of STK26/MST4 (Q9P289 whole entry): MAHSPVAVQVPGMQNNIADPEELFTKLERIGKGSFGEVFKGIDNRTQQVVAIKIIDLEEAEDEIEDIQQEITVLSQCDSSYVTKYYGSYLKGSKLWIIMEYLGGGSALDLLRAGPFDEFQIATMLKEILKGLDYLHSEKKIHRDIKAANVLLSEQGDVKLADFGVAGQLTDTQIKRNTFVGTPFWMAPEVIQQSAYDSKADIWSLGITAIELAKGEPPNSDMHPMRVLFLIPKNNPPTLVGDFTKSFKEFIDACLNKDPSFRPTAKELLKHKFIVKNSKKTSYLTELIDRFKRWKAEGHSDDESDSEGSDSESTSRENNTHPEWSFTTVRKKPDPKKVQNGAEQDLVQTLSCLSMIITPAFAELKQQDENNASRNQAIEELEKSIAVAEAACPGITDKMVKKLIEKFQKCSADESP
Experimental: as §1

[20] = target: SRMS (Homo sapiens, UniProt Q9H3Y6)
Experimental: as §1

[21] = target: NUAK2 (Homo sapiens, UniProt Q9H093)
Sequence of NUAK2 (Q9H093 whole entry): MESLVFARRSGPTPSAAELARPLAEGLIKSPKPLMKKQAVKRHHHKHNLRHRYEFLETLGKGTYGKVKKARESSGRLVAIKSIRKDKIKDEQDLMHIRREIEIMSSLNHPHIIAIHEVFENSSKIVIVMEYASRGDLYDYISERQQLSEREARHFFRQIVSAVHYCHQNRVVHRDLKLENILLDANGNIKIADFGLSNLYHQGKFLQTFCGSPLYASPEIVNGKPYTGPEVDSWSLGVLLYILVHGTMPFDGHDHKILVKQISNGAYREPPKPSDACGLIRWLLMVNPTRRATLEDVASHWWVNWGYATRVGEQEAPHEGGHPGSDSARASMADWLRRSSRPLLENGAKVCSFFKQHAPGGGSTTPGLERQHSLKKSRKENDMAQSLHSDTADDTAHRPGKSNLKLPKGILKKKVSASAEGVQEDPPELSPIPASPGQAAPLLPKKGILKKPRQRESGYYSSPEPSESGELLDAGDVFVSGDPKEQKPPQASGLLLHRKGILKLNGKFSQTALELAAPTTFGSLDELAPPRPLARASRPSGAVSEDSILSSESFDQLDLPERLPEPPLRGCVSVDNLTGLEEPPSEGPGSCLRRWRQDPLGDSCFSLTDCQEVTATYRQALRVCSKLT
Experimental: as §1

[22] = target: RET (Homo sapiens, UniProt P07949)
Experimental: as §1

[23] = target: PAK4 (Homo sapiens, UniProt O96013)
Experimental: as §1

[24] = target: MAPK10/JNK3 (Homo sapiens, UniProt P53779)
Experimental: as §1

[25] = target: PAK5 (Homo sapiens, UniProt Q9P286)
Experimental: as §1

[26] = target: GRK6 (Homo sapiens, UniProt P43250)
Experimental: as §1

[27] = target: MST1R/RON (Homo sapiens, UniProt Q04912)
Experimental: as §1

[28] = target: MYO3A (Homo sapiens, UniProt Q8NEV4)
Experimental: as §1

[29] = target: MAP4K3/GLK (Homo sapiens, UniProt Q8IVH8)
Experimental: as §1

[30] = target: PRKAA2/AMPK221 (Homo sapiens, UniProt P54646)
Experimental: as §1

[31] = target: PAK6 (Homo sapiens, UniProt Q9NQU5)
Experimental: as §1

[32] = target: CSNK2A1/CK2A1 (Homo sapiens, UniProt P68400)
Experimental: as §1

[33] = target: STK25/YSK1 (Homo sapiens, UniProt O00506)
Sequence of STK25/YSK1 (O00506 whole entry): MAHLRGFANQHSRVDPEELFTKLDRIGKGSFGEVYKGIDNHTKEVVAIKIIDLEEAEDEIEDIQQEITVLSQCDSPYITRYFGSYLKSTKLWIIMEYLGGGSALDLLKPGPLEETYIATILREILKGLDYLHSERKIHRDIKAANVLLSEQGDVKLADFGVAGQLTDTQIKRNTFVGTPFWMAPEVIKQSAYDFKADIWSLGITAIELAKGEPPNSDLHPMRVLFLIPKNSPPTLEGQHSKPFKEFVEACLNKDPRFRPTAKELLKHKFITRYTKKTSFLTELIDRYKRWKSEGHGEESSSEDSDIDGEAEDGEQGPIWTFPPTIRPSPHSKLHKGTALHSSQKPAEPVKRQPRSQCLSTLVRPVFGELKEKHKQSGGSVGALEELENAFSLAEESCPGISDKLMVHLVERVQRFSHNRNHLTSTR
Experimental: as §1

[34] = target: MAP3K11 (Homo sapiens, UniProt Q16584)
Experimental: as §1

[35] = target: LIMK2 (Homo sapiens, UniProt P53671)
Sequence of LIMK2 (P53671 whole entry): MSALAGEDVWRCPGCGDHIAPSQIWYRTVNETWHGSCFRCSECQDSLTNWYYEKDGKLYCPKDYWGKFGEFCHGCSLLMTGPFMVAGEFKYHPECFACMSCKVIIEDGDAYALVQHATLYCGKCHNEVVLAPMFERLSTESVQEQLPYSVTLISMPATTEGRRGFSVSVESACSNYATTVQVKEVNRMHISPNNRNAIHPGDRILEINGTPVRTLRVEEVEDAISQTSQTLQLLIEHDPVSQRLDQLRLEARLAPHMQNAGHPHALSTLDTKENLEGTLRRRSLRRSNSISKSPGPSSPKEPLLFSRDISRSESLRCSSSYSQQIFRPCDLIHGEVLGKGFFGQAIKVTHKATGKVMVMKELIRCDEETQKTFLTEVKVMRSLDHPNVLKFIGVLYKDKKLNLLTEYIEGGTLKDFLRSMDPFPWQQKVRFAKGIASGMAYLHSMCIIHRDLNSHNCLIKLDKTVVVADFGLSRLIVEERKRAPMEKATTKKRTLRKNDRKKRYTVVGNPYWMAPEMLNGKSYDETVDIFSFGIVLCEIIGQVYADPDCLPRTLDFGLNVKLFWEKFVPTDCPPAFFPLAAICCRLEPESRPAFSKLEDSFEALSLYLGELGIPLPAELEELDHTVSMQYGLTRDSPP
Experimental: as §1

[36] = target: ERN1 (Homo sapiens, UniProt O75460)
Experimental: as §1

[37] = target: PHKG1 (Homo sapiens, UniProt Q16816)
Sequence of PHKG1 (Q16816 whole entry): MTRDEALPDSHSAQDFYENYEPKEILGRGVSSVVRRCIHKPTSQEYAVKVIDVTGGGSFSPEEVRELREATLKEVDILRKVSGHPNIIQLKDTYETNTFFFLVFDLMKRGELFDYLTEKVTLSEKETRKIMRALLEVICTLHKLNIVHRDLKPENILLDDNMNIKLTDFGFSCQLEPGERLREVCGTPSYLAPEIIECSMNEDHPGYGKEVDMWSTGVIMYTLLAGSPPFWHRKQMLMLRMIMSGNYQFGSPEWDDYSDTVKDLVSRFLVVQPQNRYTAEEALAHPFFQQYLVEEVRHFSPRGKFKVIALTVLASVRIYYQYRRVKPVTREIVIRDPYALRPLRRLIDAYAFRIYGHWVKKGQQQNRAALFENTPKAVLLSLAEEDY
Experimental: as §1

[38] = target: FGFR2 (Homo sapiens, UniProt P21802)
Experimental: as §1

[39] = target: KSR1 (Homo sapiens, UniProt Q8IVT5)
Experimental: as §1

In the case of `C=CC(=O)N1CCC[C@@H](n2nc(-c3ccc(Oc4ccccc4)cc3)c3c(N)ncnc32)C1` [Ibrutinib], the “1 µM GBD00276 (ibrutinib), % inhibition” value [1] is reported as 2.418%, the “1 µM GBD00276 (ibrutinib), % inhibition” value [2] is reported as 61.63% and the “1 µM GBD00276 (ibrutinib), % inhibition” value [3] is reported as 1.391%. For the same compound, the “1 µM GBD00276 (ibrutinib), % inhibition” value [4] was 26.79%, the “1 µM GBD00276 (ibrutinib), % inhibition” value [5] was 5.215% and the “1 µM GBD00276 (ibrutinib), % inhibition” value [6] was -9.51%. The “1 µM GBD00276 (ibrutinib), % inhibition” value [7] was 7.258%, the “1 µM GBD00276 (ibrutinib), % inhibition” value [8] was -4.408% and the “1 µM GBD00276 (ibrutinib), % inhibition” value [9] was 22.68%. For the same compound, the “1 µM GBD00276 (ibrutinib), % inhibition” value [10] was 3.056%, the “1 µM GBD00276 (ibrutinib), % inhibition” value [11] was 10.14% and the “1 µM GBD00276 (ibrutinib), % inhibition” value [12] was 8.156%. The “1 µM GBD00276 (ibrutinib), % inhibition” value [13] was 2.135%, the “1 µM GBD00276 (ibrutinib), % inhibition” value [14] was 8.34% and the “1 µM GBD00276 (ibrutinib), % inhibition” value [15] was 8.665%. For the same compound, the “1 µM GBD00276 (ibrutinib), % inhibition” value [16] was -43.15%, the “1 µM GBD00276 (ibrutinib), % inhibition” value [17] was 20.23% and the “1 µM GBD00276 (ibrutinib), % inhibition” value [18] was 0.08032%. The “1 µM GBD00276 (ibrutinib), % inhibition” value [19] was -9.161%, the “1 µM GBD00276 (ibrutinib), % inhibition” value [20] was 81.42% and the “1 µM GBD00276 (ibrutinib), % inhibition” value [21] was 3.408%. The “1 µM GBD00276 (ibrutinib), % inhibition” value [22] was 15.14%, the “1 µM GBD00276 (ibrutinib), % inhibition” value [23] was 3.525% and the “1 µM GBD00276 (ibrutinib), % inhibition” value [24] was -5.63%. The “1 µM GBD00276 (ibrutinib), % inhibition” value [25] was 14.25%, the “1 µM GBD00276 (ibrutinib), % inhibition” value [26] was -23.1% and the “1 µM GBD00276 (ibrutinib), % inhibition” value [27] was 1.112%. For the same compound, the “1 µM GBD00276 (ibrutinib), % inhibition” value [28] was -10.26%, the “1 µM GBD00276 (ibrutinib), % inhibition” value [29] was 9.762% and the “1 µM GBD00276 (ibrutinib), % inhibition” value [30] was 4.802%. For the same compound, the “1 µM GBD00276 (ibrutinib), % inhibition” value [31] was 14.55%, the “1 µM GBD00276 (ibrutinib), % inhibition” value [32] was 11.48% and the “1 µM GBD00276 (ibrutinib), % inhibition” value [33] was 10.23%. The “1 µM GBD00276 (ibrutinib), % inhibition” value [34] was -6.395%, the “1 µM GBD00276 (ibrutinib), % inhibition” value [35] was 11.59% and the “1 µM GBD00276 (ibrutinib), % inhibition” value [36] was 1.571%. The “1 µM GBD00276 (ibrutinib), % inhibition” value [37] was 0.1781%, the “1 µM GBD00276 (ibrutinib), % inhibition” value [38] was 32.69% and the “1 µM GBD00276 (ibrutinib), % inhibition” value [39] was 8.4%.
